Laboratory results reported in patent publication US20250339391A1, “METHODS FOR EFFECTIVE MANAGEMENT OF PAIN” (South Rampart Pharma, Inc., priority 2024, published 2025).
“And” between values parts separate entries of the source, which are not always exact repeats. Equal entries are not always repeated.

Tests used:
[1] = system: Chinese Hamster Ovary Cells; test: In vitro mammalian chromosomal aberration assay; type: cell-based; details: for doses with cytotoxicity: non-activated 20-h exposure
Protocol: (§1) To further evaluate the potential genotoxicity of SRP-001 and determine the validity of the in vitro findings, a second in vivo assay, a GLP-compliant Comet assay, was conducted in accordance with ICH S2(R1) Guidance on Genotoxicity Testing and Data Interpretation for Pharmaceuticals Intended for Human Use. […] SRP-001 was tested to evaluate its mutagenic potential by measuring its ability to induce reverse mutations at selected loci of several strains of Salmonella typhimurium (S. typhimurium) and at the tryptophan locus of Escherichia coli (E. coli) strain WP2 uvrA in the presence and absence of an exogenous metabolic activation system (Bioreliance, Rockville, MD USA). Dimethyl sulfoxide (10% DMSO) was used as the vehicle. The dose levels tested in the preliminary toxicity assay were 6.67, 10.0, 33.3, 66.7, 100, 333, 667, 1000, 3333, and 5000 μg per plate. No precipitate was observed. […] The dose levels tested in the mutagenicity assay were 100, 333, 667, 1000, 3333, and 5000 μg per plate. […] In the preliminary toxicity assay, the doses tested ranged from 0.0405 to 405 μg/mL (1 mM), which was the limit dose for this assay (Bioreliance, Rockville, MD USA).
The doses selected for evaluation of chromosome aberrations were 150, 300, and 405 μg/mL for the non-activated and S9-activated 4-h exposure groups; and 10, 40, and 80 μg/mL for the non-activated 20-h exposure group. […] The induction of structural aberrations was outside the 95% control limit of the historical negative control data of 0.00% to 2.79%. […] However, the induction of structural aberrations was within the 95% control limit of the historical negative control data of 0.00% to 4.28%. […] The induction of structural aberrations was outside the 95% control limit of the historical negative control data of 0.00% to 2.68%.

[2] = system: dog; details: in vivo
Protocol: To determine the appropriate doses, maximum tolerated dose studies (non-GLP) were conducted prior to the definitive GLP systemic toxicity studies. SRP-001 was evaluated by a full battery of GLP-compliant toxicity studies. Systemic toxicity was evaluated in Sprague-Dawley rats and Beagle dogs by oral administration over 28 days (FIG. 24 and FIGS. 27-28, Table 2). […]

[3] = Phase 1 single ascending dose (SAD) and food effect pharmacokinetics; type: in vivo, human
Protocol: A two-part randomized, double-blind, placebo-controlled Phase 1 trial was conducted to assess the safety, tolerability, PK and PD of SRP-001 ascending doses (Quotient Sciences, Miami, FL USA). The study was conducted in accordance with the International Council for Harmonisation of Technical Requirements for Pharmaceuticals for Human Use (ICH), Guideline for GCP: Consolidated Guidance (E6), and applicable regulatory requirements(s) including clinical research guidelines established by the Basic Principles defined in the U.S. 21 CFR Parts 50, 56, and 312 and the principles enunciated in the Declaration of Helsinki (revised version Fortaleza 2013). The clinical protocol and informed consent form were reviewed and approved by an Institutional Review Board (IRB; Advarra IRB, 6100 Merriweather Drive, Suite 600, Columbia, MD 21044; Quotient Protocol No. SRP-101 and Quotient Sciences Study No. QSC205130; Quotient Sciences Miami, 3898 NW 7th Street, Miami, FL 33126.). The study comprises a SAD (Part 1) assessment that includes a food effect assessment that contributes data to inform a subsequent MAD (Part 2) dose-ranging study. Safety measurements were collected throughout the study for all subjects. Blood samples were collected to determine the PK parameters of SRP-001. ClinicalTrials.gov identifier: NCT05484414
Fasted and Fed Dosing: NHVs were dosed in the fasted state. The calorie/fat content of meals was not required to be controlled. Subjects were provided with a standardized menu. Subjects were provided with a light snack and then fasted from all food and drink (except water) for a minimum of 10 h on the day prior to dosing until approximately 4 h post-dose, at which time lunch was provided. An evening meal was provided at approximately 10 h post-dose/post-morning dose and an evening snack at approximately 14 h post-morning dose. Food effect was studied in the cohort receiving 900 mg SRP-001 in the fed state. A standard high-fat breakfast was given 30 min before dosing. On Day −1, these NHVs were provided with a light snack and fasted from all food and drink (except water) until the following morning, when they were provided with a standard high-fat breakfast. The breakfast had to be consumed over a maximum period of 25 min, with dosing occurring 30 min after the start of breakfast. Subjects were encouraged to eat their meal evenly over the 25 min period. It was acknowledged that some subjects took less time to eat, but dosing still occurred 30 min after the start of breakfast. Subjects had to consume at least 90% to be eligible for dosing. The start and stop time and percentage of the breakfast consumed were recorded in the source. Acceptable deviations for the pre-dose meal from the nominal time point were: 1) Pre-dose meal was provided within +5 min of the nominal time point, 2) Lunch was provided at approximately 4 h post-dose, 3) an evening meal at approximately 10 h post-dose, and 4) an evening snack at approximately 14 h post-dose. On subsequent days, meals were provided at appropriate times.
SRP-001 administration and PK/PD determination: Following a single administration of 300-2,000 mg SRP-001 oral suspension in the fasted state (and in cohort 4, 900 mg in the fed state), plasma concentrations of SRP-001 were observed from the first sampling timepoint of 1 h post-dose for all subjects.

[4] = system: Salmonella typhimurium strains and Escherichia coli strain WP2 uvrA; test: Ames reverse mutation assay; type: cell-based
Protocol: as §1

In the case of `CCN(CC)C(=O)c1ccccc1S(=O)(=O)NCC(=O)Nc1ccc(O)cc1` [SRP-001, N,N-diethyl-2-[[2-(4-hydroxyanilino)-2-oxo-ethyl]sulfamoyl]benzamide], the “induction of numerical chromosomal aberrations, conclusion” value [1] is reported as “negative for the induction of numerical chromosomal aberrations”, the structural aberrations ([1]; Chinese hamster, 20 h, 80 μg/mL) is reported as 3.7% and the dose with cytotoxicity ([1]; chromosome aberration assay, non-activated 4-h exposure) is reported as 405 µg/mL. The doses with cytotoxicity ([1]; chromosome aberration assay) was at least 70 µg/mL, the doses with cytotoxicity ([1]; preliminary toxicity assay) was at least 122 µg/mL and the “mortality after single doses” value [2] was “did not result in any mortality”. For the same compound, the “AUC(0-48), geometric mean” value ([3]; 300 mg fasted) was 1630 ng·h/mL, the “AUC(0-inf), geometric mean” value ([3]; 300 mg fasted) was 1630 ng·h/mL and the “T1/2, geometric mean” value ([3]; 300 mg fasted) was 2.38 h. The “dose dependence of geometric mean Cmax and AUC(0-∞)” value ([3]; 300 mg to 2,000 mg) was “dose-proportional or super-proportional increase”, the “AUC(0-24), geometric mean” value ([3]; 600 mg fasted) was 5660 ng·h/mL and the “AUC(0-inf), geometric mean” value ([3]; 600 mg fasted) was 5840 ng·h/mL. For the same compound, the “Cmax, geometric mean” value ([3]; 600 mg fasted) was 1740 ng/mL, the “T1/2, geometric mean” value ([3]; 600 mg fasted) was 5.0 h and 5.04 h and the “AUC(0-24), geometric mean” value ([3]; 900 mg fasted) was 6870 ng·h/mL. For the same compound, the “AUC(0-inf), geometric mean” value ([3]; 900 mg fasted) was 6970 ng·h/mL, the “Cmax, geometric mean” value ([3]; 900 mg fasted) was 2700 ng/mL and the “T1/2, geometric mean” value ([3]; 900 mg fasted) was 3.26 h. The “AUC(0-24), geometric mean” value ([3]; 900 mg fed) was 6250 ng·h/mL, the “AUC(0-inf), geometric mean” value ([3]; 900 mg fed) was 5910 ng·h/mL and the “Cmax, geometric mean” value ([3]; 900 mg fed) was 1200 ng/mL. The “T1/2, geometric mean” value ([3]; 900 mg fed) was 3.79 h, the “relative bioavailability based on geometric mean AUC(0-24)” value ([3]; 900 mg fed vs fasted) was 99.2% and the “relative bioavailability based on geometric mean AUC(0-inf)” value ([3]; 900 mg fed vs fasted) was 101%. The “relative bioavailability based on geometric mean AUC(0-last)” value ([3]; 900 mg fed vs fasted) was 98.4%, the “relative bioavailability based on geometric mean Cmax” value ([3]; 900 mg fed vs fasted) was 48.4% and the “AUC(0-24), geometric mean” value ([3]; 2000 mg fasted) was 18900 ng·h/mL. The “AUC(0-inf), geometric mean” value ([3]; 2000 mg fasted) was 19600 ng·h/mL, the “Cmax, geometric mean” value ([3]; 2000 mg fasted) was 4590 ng/mL and the “T1/2, geometric mean” value ([3]; 2000 mg fasted) was 5.96 h. The “geometric mean AUC(0-24) as share of the exposure limits defined in the protocol” value ([3]; 2000 mg fasted) was 31%, the “geometric mean Cmax as share of the exposure limits defined in the protocol” value ([3]; 2000 mg fasted) was 34% and the “increase of geometric mean AUC(0-24)” value ([3]; dose from 300 to 600 mg) was 3.5 fold. The “increase of geometric mean Cmax” value ([3]; dose from 300 to 600 mg) was 2.6 fold, the “increase of geometric mean AUC(0-24)” value ([3]; dose from 600 to 900 mg) was 1.2 fold and the “increase of geometric mean Cmax” value ([3]; dose from 600 to 900 mg) was 1.6 fold. The “increase of geometric mean AUC(0-24)” value ([3]; dose from 900 to 2000 mg) was 2.8 fold, the “increase of geometric mean Cmax” value ([3]; dose from 900 to 2000 mg) was 1.7 fold and the “mutagenic response (reverse mutations)” value ([4]; 100-5000 μg per plate, with and without S9) was “No positive mutagenic responses were observed”. The precipitate and toxicity ([4]; mutagenicity assay, up to 5000 μg per plate) was “Neither precipitate nor toxicity was observed” and the “dose with toxicity (reduction in the revertant count)” value ([4]; preliminary toxicity assay, TA1537 and WP2 uvrA, absence of S9) was 5000 μg per plate.
